PubChem BioAssay AID192 (DTP/NCI, 2004)
Several values for one entry are separate records, joined by “and”; a condition that tells them apart may be missing. Identical values can stand only once. Toxic doses and inconclusive results are not listed.

System: BDF1 mice, B16 melanoma ip, median survival T/C
Experiment: NCI In Vivo Anticancer Drug Screen. Data for tumor model B16 Melanoma (intraperitoneal) in B6D2F1 (BDF1) mice
Conditions: endpoint: median survival time, higher = longer survival
Summary of the method: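 Compounds were tested in mice carrying transplantable tumors. Survival or tumor size was recorded, and each value is the treated-group measurement (T) divided by that of the vehicle-treated control group (C).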

[1] = dose: 25.0 mg/kg/injection, schedule: Q01DX009 (ip), vehicle: Klucel (hydroxypropylcellulose) (HPC)
[2] = dose: 50.0 mg/kg/injection, schedule: Q01DX009 (ip), vehicle: Klucel (hydroxypropylcellulose) (HPC)
[3] = dose: 100.0 mg/kg/injection, schedule: Q01DX009 (ip), vehicle: Klucel (hydroxypropylcellulose) (HPC)
[4] = dose: 6.25 mg/kg/injection, schedule: Q01DX009 (ip), vehicle: saline
[5] = dose: 12.5 mg/kg/injection, schedule: Q01DX009 (ip), vehicle: saline
[6] = dose: 3.12 mg/kg/injection, schedule: Q01DX009 (ip), vehicle: Klucel (hydroxypropylcellulose) (HPC)
[7] = dose: 6.25 mg/kg/injection, schedule: Q01DX009 (ip), vehicle: Klucel (hydroxypropylcellulose) (HPC)
[8] = dose: 12.5 mg/kg/injection, schedule: Q01DX009 (ip), vehicle: Klucel (hydroxypropylcellulose) (HPC)
[9] = dose: 10.0 mg/kg/injection, schedule: Q01DX009 (ip), vehicle: saline
[10] = dose: 100.0 mg/kg/injection, schedule: Q04DX003 (ip), vehicle: saline with Tween-80
[11] = dose: 200.0 mg/kg/injection, schedule: Q04DX003 (ip), vehicle: saline with Tween-80
[12] = dose: 100.0 mg/kg/injection, schedule: Q01DX009 (ip), vehicle: saline with Tween-80
[13] = dose: 50.0 mg/kg/injection, schedule: Q01DX009 (ip), vehicle: saline with Tween-80
[14] = dose: 200.0 mg/kg/injection, schedule: Q01DX009 (ip), vehicle: saline with Tween-80
[15] = dose: 100.0 mg/kg/injection, schedule: Q01DX009 (ip), vehicle: saline
[16] = dose: 200.0 mg/kg/injection, schedule: Q01DX009 (ip), vehicle: saline
[17] = dose: 200.0 mg/kg/injection, schedule: Q01DX009 (ip), vehicle: Klucel (hydroxypropylcellulose) (HPC)
[18] = dose: 400.0 mg/kg/injection, schedule: Q01DX009 (ip), vehicle: Klucel (hydroxypropylcellulose) (HPC)
[19] = dose: 25.0 mg/kg/injection, schedule: Q01DX009 (ip), vehicle: saline with Tween-80
[20] = dose: 25.0 mg/kg/injection, schedule: Q01DX009 (ip), vehicle: saline
[21] = dose: 50.0 mg/kg/injection, schedule: Q01DX009 (ip), vehicle: saline
[22] = dose: 12.5 mg/kg/injection, schedule: Q01DX009 (ip), vehicle: saline with Tween-80
[23] = dose: 1.56 mg/kg/injection, schedule: Q01DX009 (ip), vehicle: saline

ClCC[N-]CC[N-]CCCl.ClCC[N-]CC[N-]CCCl.[O-][Cl+3]([O-])([O-])O.[Zn+2]
T/C (dose: 2.5 mg/kg/injection, schedule: Q01DX009 (ip), vehicle: Klucel (hydroxypropylcellulose) (HPC)): 106 % of control
T/C (dose: 5.0 mg/kg/injection, schedule: Q01DX009 (ip), vehicle: Klucel (hydroxypropylcellulose) (HPC)): 92 % of control
T/C (dose: 10.0 mg/kg/injection, schedule: Q01DX009 (ip), vehicle: Klucel (hydroxypropylcellulose) (HPC)): 101 % of control
T/C (dose: 20.0 mg/kg/injection, schedule: Q01DX009 (ip), vehicle: Klucel (hydroxypropylcellulose) (HPC)): 104 % of control

CC1CC(NC(=S)S)CC(C)(C)C1 (stereo not drawn)
T/C (dose: 0.25 mg/kg/injection, schedule: Q01DX009 (ip), vehicle: Klucel (hydroxypropylcellulose) (HPC)): 96 % of control
T/C (dose: 0.5 mg/kg/injection, schedule: Q01DX009 (ip), vehicle: Klucel (hydroxypropylcellulose) (HPC)): 96 % of control
T/C (dose: 1.0 mg/kg/injection, schedule: Q01DX009 (ip), vehicle: Klucel (hydroxypropylcellulose) (HPC)): 100 % of control

Cc1ccc(NC(=S)NN)cc1C
T/C [1]: 100 % of control
T/C [2]: 96 % of control
T/C [3]: 96 % of control

Cc1cc2c3ccccc3ccc2[n+]2ccccc12
T/C [4]: 95 % of control
T/C [5]: 93 % of control

[Cl][Pt+2]([Cl])([Cl])[Cl].[NH-]C1CCCCC1.[NH-]C1CCCCC1
T/C (dose: 6.25 mg/kg/injection, schedule: Q01DX009 (ip), vehicle: other): 124 % of control
T/C (dose: 12.5 mg/kg/injection, schedule: Q01DX009 (ip), vehicle: other): 111 % of control
T/C (dose: 25.0 mg/kg/injection, schedule: Q01DX009 (ip), vehicle: other): 112 % of control
T/C (dose: 50.0 mg/kg/injection, schedule: Q01DX009 (ip), vehicle: other): 103 % of control

CCCC[S][Sn]([CH2]CCC)([CH2]CCC)[S]CCCC
T/C (dose: 0.19 mg/kg/injection, schedule: Q01DX009 (ip), vehicle: saline with Tween-80): 98 % of control
T/C (dose: 0.38 mg/kg/injection, schedule: Q01DX009 (ip), vehicle: saline with Tween-80): 98 % of control
T/C (dose: 0.75 mg/kg/injection, schedule: Q01DX009 (ip), vehicle: saline with Tween-80): 99 % of control

Cc1noc2c1ncc[n+]2[O-]
T/C (dose: 5.0 mg/kg/injection, schedule: Q01DX009 (ip), vehicle: saline with Tween-80): 108 % of control
T/C (dose: 10.0 mg/kg/injection, schedule: Q01DX009 (ip), vehicle: saline with Tween-80): 119 % of control
T/C (dose: 20.0 mg/kg/injection, schedule: Q01DX009 (ip), vehicle: saline with Tween-80): 116 % of control

O=c1[nH]c2ccccc2n1C1CCN(CCCC(c2ccc(F)cc2)c2ccc(F)cc2)CC1
T/C (dose: 1.56 mg/kg/injection, schedule: Q01DX009 (ip), vehicle: Klucel (hydroxypropylcellulose) (HPC)): 102 % of control
T/C [6]: 100 % of control
T/C [7]: 100 % of control
T/C [8]: 94 % of control
T/C [1]: 105 % of control
T/C [2]: 87 % of control
T/C [3]: 87 % of control

Nc1ccccc1.[C-]#[O+].[C-]#[O+].[C-]#[O+].[C-]#[O+].[C-]#[O+].[Cr]
T/C (dose: 2.5 mg/kg/injection, schedule: Q01DX009 (ip), vehicle: saline): 95 % of control
T/C (dose: 5.0 mg/kg/injection, schedule: Q01DX009 (ip), vehicle: saline): 114 % of control
T/C [9]: 108 % of control

O=C1N(CC2CO2)CCN1CC1CO1 (stereo not drawn)
T/C (dose: 12.5 mg/kg/injection, schedule: Q01DX009 (ip), vehicle: suspension in saline): 106 % of control
T/C (dose: 25.0 mg/kg/injection, schedule: Q01DX009 (ip), vehicle: suspension in saline): 124 % of control
T/C (dose: 100.0 mg/kg/injection, schedule: Q01DX009 (ip), vehicle: suspension in saline): 193 % of control

O=C(O)C1(Cl)CC2C=CC1C2 (stereo not drawn)
T/C (dose: 50.0 mg/kg/injection, schedule: Q04DX003 (ip), vehicle: saline with Tween-80): 105 % of control
T/C [10]: 97 % of control
T/C [11]: 88 % of control

O=C(OCc1ccccc1)C(=O)OCc1ccccc1
T/C [12]: 121 % of control
T/C [10]: 100 % of control
T/C [11]: 107 % of control

c1cc[c]([Sn]([S][Sn]([c]2ccccc2)([c]2ccccc2)[c]2ccccc2)([c]2ccccc2)[c]2ccccc2)cc1
T/C [13]: 99 % of control
T/C [12]: 93 % of control
T/C [14]: 92 % of control
T/C (dose: 400.0 mg/kg/injection, schedule: Q01DX009 (ip), vehicle: saline with Tween-80): 86 % of control

Cc1ccc(NC(=O)c2cccc(C(=O)Nc3ccc(C)cc3C)c2)c(C)c1
T/C [8]: 115 % of control
T/C [1]: 96 % of control
T/C [2]: 102 % of control

NC(=O)NOCC1NC(=O)C(CONC(N)=O)NC1=O (stereo not drawn)
T/C [15]: 98 % of control
T/C [16]: 94 % of control
T/C (dose: 200.0 mg/kg/injection, schedule: Q04DX003 (ip), vehicle: saline): 102 % of control
T/C (dose: 400.0 mg/kg/injection, schedule: Q01DX009 (ip), vehicle: saline): 97 % of control
T/C (dose: 400.0 mg/kg/injection, schedule: Q04DX003 (ip), vehicle: saline): 94 % of control

COc1ccc(NC(=O)Nc2ccc(C(C)C)cc2)cc1
T/C [3]: 94 % of control
T/C [17]: 94 % of control
T/C [18]: 97 % of control

CSCCC1NC(=O)C(/C(C)=N\NC(N)=O)=C1O (stereo not drawn)
T/C [19]: 111 % of control
T/C [13]: 105 % of control
T/C [12]: 96 % of control
T/C [14]: 96 % of control

CCC(CC)N=C(N)N
T/C [20]: 101 % of control
T/C [21]: 98 % of control
T/C [15]: 112 % of control

C#CC(C)(C)OCC(CCl)OC(N)=O (stereo not drawn)
T/C [22]: 91 % of control
T/C [19]: 100 % of control
T/C [13]: 104 % of control
T/C [12]: 93 % of control
T/C [14]: 95 % of control

CC1(C)N=C(N)N=C(N)N1c1ccc(OCCCCNC(=O)c2ccc(S(=O)(=O)F)cc2)c(Cl)c1
T/C [22]: 108 % of control
T/C [19]: 112 % of control
T/C [13]: 111 % of control
T/C [12]: 112 % of control

CC(=O)CC(=O)Nc1ccc(-c2ccc(NC(=O)CC(C)=O)c(Cl)c2)cc1Cl
T/C [3]: 87 % of control
T/C [17]: 87 % of control

CC(CN1CCN(CCOCCO)CC1)CN1c2ccccc2Sc2ccccc21 (stereo not drawn)
T/C [23]: 108 % of control
T/C (dose: 3.12 mg/kg/injection, schedule: Q01DX009 (ip), vehicle: saline): 97 % of control
T/C [4]: 102 % of control
T/C [20]: 100 % of control and 101 % of control

COc1cc2c(c(OC)c1OC)-c1ccc(OC)c(=O)cc1[C@@H](NC(=O)CF)CC2
T/C (dose: 0.04 mg/kg/injection, schedule: Q01DX009 (ip), vehicle: saline with Tween-80): 116 % of control
T/C (dose: 0.09 mg/kg/injection, schedule: Q01DX009 (ip), vehicle: saline with Tween-80): 118 % of control

COc1ccc2nc3ccccc3c(NCCNCCO)c2c1
T/C [9]: 123 % of control

C[CH2][Sn]([CH2]C)([CH2]C)[O]C(=O)CO
T/C [23]: 97 % of control
T/C (dose: 3.13 mg/kg/injection, schedule: Q01DX009 (ip), vehicle: saline): 87 % of control

NC(=O)N1CCN(CCCN2c3ccccc3Sc3cc(Cl)ccc32)CC1
T/C [6]: 92 % of control
T/C [7]: 98 % of control
T/C [8]: 101 % of control
T/C [1]: 106 % of control

Cc1cccc(NC(=O)NC(C)C)c1C
T/C [3]: 100 % of control
T/C (dose: 100.0 mg/kg/injection, schedule: Q04DX003 (ip), vehicle: Klucel (hydroxypropylcellulose) (HPC)): 103 % of control
T/C [17]: 96 % of control
T/C (dose: 200.0 mg/kg/injection, schedule: Q04DX003 (ip), vehicle: Klucel (hydroxypropylcellulose) (HPC)): 107 % of control
T/C [18]: 93 % of control
T/C (dose: 400.0 mg/kg/injection, schedule: Q04DX003 (ip), vehicle: Klucel (hydroxypropylcellulose) (HPC)): 100 % of control

O=C(CCCN1CCN(c2ccccc2)CC1)c1ccc(F)cc1
T/C [5]: 112 % of control
T/C [20]: 115 % of control
T/C [21]: 107 % of control
T/C [15]: 102 % of control
T/C [16]: 100 % of control
